Key:
15N-labeled αS monomer = target: T1, 15N-labeled αS monomer (Homo sapiens, UniProt P37840); test: 2D 1H-15N HSQC NMR of 15N-labeled αS with ligand; type: binding; conditions: 70 µM 15N-αS + equimolar ligand, V/V0
T1 construct: purchased rpeptide, Bogart, GA
Method: A solution of ^15N αS was prepared by resuspending 1 mg of uniformly labeled ^15N αS (rpeptide, Bogart, GA) in 1 mL Milli-Q water to yield a 70 μM αS solution in 20 mM Tris-HCl pH 7.4, 100 mM NaCl. The protein was buffer exchanged to Milli-Q water, lyophilized, and stored at –80 °C. For the preparation of NMR experiments, the lyophilized ^15N αS powder was dissolved in the NMR buffer (300 μL, 20 mM NaPO4 pH 6.4, 5% D2O, v/v) to make a final concentration of 70 μM. The protein concentration was confirmed with a NanoDrop One (Thermo Scientific, Waltham, MA) at 280 nm using an extinction coefficient of 5960 M^-1cm^-1. The solutions were transferred into Shigemi BMS-005 NMR tube (Shigemi, Tokyo, Japan) and the two-dimensional ^1H-^15N HSQC NMR experiments were performed on a 600 MHz Bruker Avance Neo (CU Anschutz, NMR core facility, CO) instrument equipped with a triple resonance HCN cryoprobe. Data was collected at 12 °C on Topspin 4.9.0 software (Bruker, Billerica, MA). The HSQC spectra were recorded using a data matrix consisting of 1024 (t2, ^1H) × 160 (t1, ^15N) complex points. Resonance assignments were determined utilizing a previous publication[83] and the data analysis was performed using MestReNova software.
(§1) For the HSQC experiments titrating NS132 into ^15N αS, the same experimental conditions were used as above. Incrementally, NS132 was added to a single ^15N αS solution, mixed, kept at r.t. for 10 min and HSQC was recorded under the conditions stated above. For HSQC experiments containing pre-formed fibrils (PFF) of αS, 5.4 eq. of PFF solution (500 μM) was added to monomeric ^15N αS solution, and the spectra was recorded as previously stated.

UA196 worms = test: ROS level in UA196 worms (H2DCFDA dye); type: in vivo, C. elegans
Method: The worm strains were bleached at the same time and the eggs were incubated on PLATE 1. On day two, the worms were divided into two batches. One half of the worms were transferred (using M9 buffer) on PLATE 2 (without ligand) and the second half of the worms were transferred to PLATE 3 (with ligand). The concentration of the ligands was 50 µM as described in the main manuscript. On day four, the ligand (10–50 μM in M9 buffer with 0.1%-0.5% DMSO, v/v) was spotted again atop the PLATE 3 at 20 °C. The worms were incubated on PLATE 2 or PLATE 3 up to day eight at 20 °C in an incubator with constant humidity. On day eight, the worms were transferred into 1.7 mL microcentrifuge tubes using M9 buffer (1 mL) and washed with M9 buffer (1 mL and three times) by centrifugation for 2 min at 700xg and 20 °C. Subsequently, a total of 100 worms/well were transferred to a Costar 96-well black plate (Corning, Kennebunk, ME) containing 100 μL solution, including M9 buffer (89 μL), worm solution (10 μL and 100 worms), and 2’,7’-dichlorofluorescein diacetate (H2DCFDA) dye (1 μL, 50 μM, stock solution = 5 mM in cell culture grade DMSO, 99% pure). As a control, 99 μL of M9 buffer and 1 μL of 5 mM H2DCFDA reaction solution was placed in the wells. Subsequently, the Costar 96-well plate was gently shaken for 30 sec at 20 °C and the fluorescence intensity was measured (λex = 485 nm and λem = 530 nm) at multiple time points (0 to 120 min) using the Infinite M200 Pro Plate Reader (Tecan, Männedorf, Switzerland)[65],[89].
For confocal imaging, the same UA196 worms (in the absence and presence of ligands) used for the quantification of ROS, were transferred from the 96-well plate into PLATE 2, air-dried into the sterile laminar flow hood. The worms ( ~ 10 worms) were transferred to a cover slide containing an anesthetic (40 mM sodium azide) and mounted on a glass microscope slide containing 2% agarose pads for the confocal imaging as described in the previous sections. This experiment consisted of three biological replicates and each biological replicate consisted of three technical replicates.

[1] = target: T2, αS monomer-αS fibers interaction (Homo sapiens, UniProt P37840); test: HSQC NMR of 15N-αS monomer with αS fibers with or without NS132; type: binding; conditions: 70 μM 15N-αS + αS fibers, equimolar NS132, 24 h
T2 construct: purchased rpeptide, Bogart, GA
Method: We also employed 2D NMR HSQC for atomic-level insights into fibers-catalyzed aggregation of αS and its inhibition by NS132. […] We have also shown that NS132 specifically interacts with the N-terminal residues of αS. […] We incubated preformed fibers of αS with 70 μM ^15N-^1H-uniformly labeled αS monomer and used HSQC NMR to characterize the kinetics of fibers-catalyzed aggregation of αS on a molecular level. […] Also, αS fibers interact specifically with four αS sequences on the N-terminus, including residues 3-23, 40-45, 49-59, and 75-84 (Fig. 4b,c). There was an induction of a secondary structure in the αS monomer, indicated by the spreading of the amide peaks toward the ^1H resonances (Fig. 4c, green). […] Even after 40 h, there were fewer and smaller changes in the volume intensity of the amide peaks of ^15N-^1H-uniformly labeled αS monomer in the presence of NS132 (Fig. 4f).
as §1

For `Cc1ccc(NC(=O)c2ccc(NC(=O)c3ccc([N+](=O)[O-])c(NCCc4c[nH]c5ccccc45)n3)c(NCC3CCCCC3)n2)c(OCC(=O)O)n1` [NS132], the “Change in volume of peaks, αS residue A11” value (15N-labeled αS monomer) was 0.12, the “Change in volume of peaks, αS residue A17” value (15N-labeled αS monomer) was 0.33 and the “Change in volume of peaks, αS residue A18” value (15N-labeled αS monomer) was 0.55. For the same compound, the “Change in volume of peaks, αS residue A19” value (15N-labeled αS monomer) was 0.15, the “Change in volume of peaks, αS residue A56” value (15N-labeled αS monomer) was 0.13 and the “Change in volume of peaks, αS residue A78” value (15N-labeled αS monomer) was 0.03. For the same compound, the “Change in volume of peaks, αS residue A89” value (15N-labeled αS monomer) was 0.12, the “Change in volume of peaks, αS residue A90” value (15N-labeled αS monomer) was 0.08 and the “Change in volume of peaks, αS residue A107” value (15N-labeled αS monomer) was 0.04. The “Change in volume of peaks, αS residue E13” value (15N-labeled αS monomer) was 0.05, the “Change in volume of peaks, αS residue E20” value (15N-labeled αS monomer) was 0.17 and the “Change in volume of peaks, αS residue E46” value (15N-labeled αS monomer) was 0.14. The “Change in volume of peaks, αS residue G14” value (15N-labeled αS monomer) was 0.1, the “Change in volume of peaks, αS residue G31” value (15N-labeled αS monomer) was 0.08 and the “Change in volume of peaks, αS residue G36” value (15N-labeled αS monomer) was 0.1. The “Change in volume of peaks, αS residue G41” value (15N-labeled αS monomer) was 0.31, the “Change in volume of peaks, αS residue G68” value (15N-labeled αS monomer) was 0.06 and the “Change in volume of peaks, αS residue G93” value (15N-labeled αS monomer) was 0.04. For the same compound, the “Change in volume of peaks, αS residue H50” value (15N-labeled αS monomer) was 0.52, the “Change in volume of peaks, αS residue K10” value (15N-labeled αS monomer) was 0.12 and the “Change in volume of peaks, αS residue K12” value (15N-labeled αS monomer) was 0.77. For the same compound, the “Change in volume of peaks, αS residue K43” value (15N-labeled αS monomer) was 0.42, the “Change in volume of peaks, αS residue L38” value (15N-labeled αS monomer) was 0.05 and the “Change in volume of peaks, αS residue L100” value (15N-labeled αS monomer) was 0.09. The “Change in volume of peaks, αS residue S42” value (15N-labeled αS monomer) was 0.46, the “Change in volume of peaks, αS residue S129” value (15N-labeled αS monomer) was 0.14 and the “Change in volume of peaks, αS residue T22” value (15N-labeled αS monomer) was 0.03. For the same compound, the “Change in volume of peaks, αS residue T59” value (15N-labeled αS monomer) was 0.26, the “Change in volume of peaks, αS residue T64” value (15N-labeled αS monomer) was 0.08 and the “Change in volume of peaks, αS residue T75” value (15N-labeled αS monomer) was 0.22. For the same compound, the “Change in volume of peaks, αS residue V3” value (15N-labeled αS monomer) was 0.04, the “Change in volume of peaks, αS residue V15” value (15N-labeled αS monomer) was 0.61 and the “Change in volume of peaks, αS residue V16” value (15N-labeled αS monomer) was 0.09. The “Change in volume of peaks, αS residue V37” value (15N-labeled αS monomer) was 0.08, the “Change in volume of peaks, αS residue V40” value (15N-labeled αS monomer) was 0.13 and the “Change in volume of peaks, αS residue V66” value (15N-labeled αS monomer) was 0.04. The “Change in volume of peaks, αS residue V77” value (15N-labeled αS monomer) was 0.16, the “Change in volume of peaks, αS residue V82” value (15N-labeled αS monomer) was 0.09 and the “Change in volume of peaks, αS residue Y39” value (15N-labeled αS monomer) was 0.21. The “intracellular ROS level in UA196 worms, in words” value (UA196 worms; 50 µM ligand on day two and four, day eight) was “low”, the “ROS dye signal, Average” value (UA196 worms; UA196+NS132, Time 0 min) was 169.8 and the “ROS dye signal, Average” value (UA196 worms; UA196+NS132, Time 60 min) was 210.6. The “ROS dye signal, Average” value (UA196 worms; UA196+NS132, Time 120 min) was 301.6 and the “change in the volume of the amide peaks of 15N-αS monomer with αS fibers, in words” value [1] was “no significant change”.

— paper PMC11061149, “Protein mimetic 2D FAST rescues alpha synuclein aggregation mediated early and post disease Parkinson’s phenotypes” (Nature Communications, 2024)
